From the supplement of paper PMC10307832

What follows are cell lines tested with CC1CC(=O)N(C2=CN=C(N=C2N1C3CCCC3)NC4=C(C=C(C=C4)C(=O)NC5CCN(CC5)C)OC)C [NPK76-II-72-1] + Nc1ncn([C@H]2C[C@H](O)[C@@H](CO)O2)c(=O)n1 [Decitabine] (partner 2 µM) (assay: relative viability (nuclei count vs DMSO), 5 days (fraction); higher = more cells survive). Conditions: first compound 0.01 µM.
Procedure, shortened: (§1)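 After 5 days of treatment, lung cancer cells in 1536-well plates were fixed and stained in a single step (final 0.05% Triton X-100, 1% formaldehyde, 1 ug/ml Hoechst) and their nuclei counted on 4× images. Treatment had been applied by pin tool the day after seeding as one drug alone or as a fixed anchor-drug dose with five library-drug doses (not always all listed) in √10 steps. Relative viability is the nuclei count of treated wells divided by that of vehicle wells, and values are medians of duplicate plates.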

Row | Cell Line | relative viability
1 | NCI-H2405 | 0.74
2 | HOP-62 | 0.202
3 | HCC-44 | 0.991
4 | LU99A | 0.897
5 | BEN | 0.661
6 | HARA | 0.643
7 | HCC-78 | 0.711
8 | NCI-H322M | 0.675
9 | LCLC-97TM1 | 0.226
10 | NCI-H2009 | 0.422
11 | A-427 | 0.547
12 | NCI-H441 | 0.226
13 | NCI-H661 | 0.582
14 | NCI-H1734 | 0.49
15 | NCI-H460 | 0.432
16 | NCI-H2347 | 0.607
17 | SK-LU-1 | 0.626
18 | 201T | 0.818
19 | NCI-H1915 | 0.256
20 | HCC-827 | 0.282
21 | LXF-289 | 0.345
22 | NCI-H23 | 0.31
23 | NCI-H647 | 0.379
24 | NCI-H1651 | 0.611
25 | EPLC-272H | 0.407
26 | NCI-H1355 | 0.349

Same assay, conditions: first compound 0.03162 µM

Row | Cell Line | relative viability
27 | NCI-H2405 | 0.789
28 | HOP-62 | 0.238
29 | HCC-44 | 1.08
30 | LU99A | 0.833
31 | BEN | 0.713
32 | HARA | 0.57
33 | HCC-78 | 0.696
34 | NCI-H322M | 0.711
35 | LCLC-97TM1 | 0.233
36 | NCI-H2009 | 0.42
37 | A-427 | 0.592
38 | NCI-H441 | 0.222
39 | NCI-H661 | 0.553
40 | NCI-H1734 | 0.456
41 | NCI-H460 | 0.492
42 | NCI-H2347 | 0.578
43 | SK-LU-1 | 0.63
44 | 201T | 0.87
45 | NCI-H1915 | 0.257
46 | HCC-827 | 0.367
47 | LXF-289 | 0.374
48 | NCI-H23 | 0.315
49 | NCI-H647 | 0.364
50 | NCI-H1651 | 0.645
51 | EPLC-272H | 0.387
52 | NCI-H1792 | 0.683
53 | NCI-H1355 | 0.359

Same assay, conditions: first compound 0.1 µM

Row | Cell Line | relative viability
54 | NCI-H2405 | 0.719
55 | HOP-62 | 0.222
56 | HCC-44 | 0.931
57 | LU99A | 0.75
58 | BEN | 0.671
59 | HARA | 0.616
60 | HCC-78 | 0.549
61 | NCI-H322M | 0.714
62 | LCLC-97TM1 | 0.195
63 | NCI-H2009 | 0.38
64 | A-427 | 0.611
65 | NCI-H441 | 0.233
66 | NCI-H661 | 0.589
67 | NCI-H1734 | 0.479
68 | NCI-H460 | 0.521
69 | NCI-H2347 | 0.614
70 | SK-LU-1 | 0.64
71 | 201T | 0.906
72 | NCI-H1915 | 0.27
73 | HCC-827 | 0.333
74 | LXF-289 | 0.364
75 | NCI-H23 | 0.264
76 | NCI-H647 | 0.418
77 | NCI-H1651 | 0.606
78 | EPLC-272H | 0.371
79 | NCI-H1792 | 0.42
80 | NCI-H1355 | 0.338

Same assay, conditions: first compound 0.3162 µM

Row | Cell Line | relative viability
81 | NCI-H2405 | 0.629
82 | HOP-62 | 0.208
83 | HCC-44 | 0.922
84 | LU99A | 0.928
85 | BEN | 0.743
86 | HCC-78 | 0.699
87 | NCI-H322M | 0.743
88 | LCLC-97TM1 | 0.259
89 | NCI-H2009 | 0.364
90 | A-427 | 0.541
91 | NCI-H441 | 0.222
92 | NCI-H661 | 0.458
93 | NCI-H1734 | 0.479
94 | NCI-H460 | 0.455
95 | NCI-H2347 | 0.562
96 | SK-LU-1 | 0.582
97 | 201T | 0.887
98 | NCI-H1915 | 0.261
99 | HCC-827 | 0.288
100 | LXF-289 | 0.383
101 | NCI-H23 | 0.405
102 | NCI-H647 | 0.367
103 | NCI-H1651 | 0.589
104 | EPLC-272H | 0.379
105 | NCI-H1792 | 0.534
106 | NCI-H1355 | 0.315

Same assay, conditions: first compound 1 µM

Row | Cell Line | relative viability
107 | NCI-H2405 | 0.862
108 | HOP-62 | 0.203
109 | HCC-44 | 0.968
110 | LU99A | 0.916
111 | BEN | 0.76
112 | HARA | 0.451
113 | HCC-78 | 0.653
114 | NCI-H322M | 0.77
115 | LCLC-97TM1 | 0.211
116 | NCI-H2009 | 0.365
117 | A-427 | 0.574
118 | NCI-H441 | 0.252
119 | NCI-H661 | 0.56
120 | NCI-H1734 | 0.525
121 | NCI-H460 | 0.47
122 | NCI-H2347 | 0.635
123 | SK-LU-1 | 0.615
124 | 201T | 0.886
125 | NCI-H1915 | 0.278
126 | HCC-827 | 0.35
127 | LXF-289 | 0.357
128 | NCI-H23 | 0.306
129 | NCI-H647 | 0.454
130 | NCI-H1651 | 0.604
131 | EPLC-272H | 0.37
132 | NCI-H1792 | 0.515
133 | NCI-H1355 | 0.344

Each cell line was assayed with CC[C@@H]1C(=O)N(C)c2cnc(Nc3ccc(C(=O)NC4CCN(C)CC4)cc3OC)nc2N1C1CCCC1 [BI-2536] + C[C@@H](Oc1cc(-c2cnn(C3CCNCC3)c2)cnc1N)c1c(Cl)ccc(F)c1Cl [Crizotinib] (partner 1 µM) in the same assay as above. Conditions: first compound 0.01 µM.
Procedure, shortened: as §1

Row | Cell Line | relative viability
134 | NCI-H2405 | 0.807
135 | HOP-62 | 0.986
136 | HCC-44 | 0.786
137 | LU99A | 0.527
138 | BEN | 0.849
139 | HARA | 1.03
140 | HCC-78 | 0.368
141 | NCI-H322M | 0.992
142 | LCLC-97TM1 | 0.249
143 | NCI-H2009 | 0.962
144 | A-427 | 0.927
145 | NCI-H441 | 0.503
146 | NCI-H661 | 0.97
147 | NCI-H1734 | 0.644
148 | NCI-H460 | 0.966
149 | NCI-H2347 | 0.675
150 | SK-LU-1 | 0.857
151 | 201T | 1.02
152 | NCI-H1915 | 0.931
153 | HCC-827 | 0.926
154 | LXF-289 | 0.822
155 | NCI-H23 | 0.622
156 | NCI-H647 | 1.15
157 | NCI-H1651 | 0.85
158 | EPLC-272H | 0.901
159 | NCI-H1792 | 1.04
160 | NCI-H1355 | 1.06

Same assay, conditions: first compound 0.03162 µM

Row | Cell Line | relative viability
161 | NCI-H2405 | 0.778
162 | HOP-62 | 0.949
163 | HCC-44 | 0.703
164 | LU99A | 0.526
165 | BEN | 0.6
166 | HARA | 1.07
167 | HCC-78 | 0.288
168 | NCI-H322M | 0.721
169 | LCLC-97TM1 | 0.303
170 | NCI-H2009 | 0.696
171 | A-427 | 0.678
172 | NCI-H441 | 0.393
173 | NCI-H661 | 0.928
174 | NCI-H1734 | 0.548
175 | NCI-H460 | 0.842
176 | NCI-H2347 | 0.692
177 | SK-LU-1 | 0.51
178 | 201T | 1.03
179 | NCI-H1915 | 0.549
180 | HCC-827 | 0.968
181 | LXF-289 | 0.693
182 | NCI-H23 | 0.398
183 | NCI-H647 | 0.418
184 | NCI-H1651 | 0.889
185 | EPLC-272H | 0.577
186 | NCI-H1792 | 0.815
187 | NCI-H1355 | 1.1

Same assay, conditions: first compound 0.1 µM

Row | Cell Line | relative viability
188 | NCI-H2405 | 0.532
189 | HOP-62 | 0.78
190 | HCC-44 | 0.444
191 | LU99A | 0.218
192 | BEN | 0.556
193 | HARA | 0.636
194 | HCC-78 | 0.347
195 | NCI-H322M | 0.92
196 | LCLC-97TM1 | 0.2
197 | NCI-H2009 | 0.287
198 | A-427 | 0.535
199 | NCI-H441 | 0.218
200 | NCI-H661 | 0.854
201 | NCI-H1734 | 0.35
202 | NCI-H460 | 0.0283
203 | NCI-H2347 | 0.675
204 | SK-LU-1 | 0.357
205 | 201T | 1
206 | NCI-H1915 | 0.549
207 | HCC-827 | 0.714
208 | LXF-289 | 0.456
209 | NCI-H23 | 0.426
210 | NCI-H647 | 0.425
211 | NCI-H1651 | 0.81
212 | NCI-H1792 | 1.01
213 | NCI-H1355 | 0.796

Same assay, conditions: first compound 0.3162 µM

Row | Cell Line | relative viability
214 | NCI-H2405 | 0.223
215 | HOP-62 | 0.134
216 | HCC-44 | 0.139
217 | LU99A | 0.212
218 | BEN | 0.243
219 | HARA | 0.139
220 | HCC-78 | 0.18
221 | NCI-H322M | 0.346
222 | LCLC-97TM1 | 0.168
223 | NCI-H2009 | 0.191
224 | A-427 | 0.119
225 | NCI-H441 | 0.154
226 | NCI-H661 | 0.381
227 | NCI-H1734 | 0.204
228 | NCI-H460 | 0.0109
229 | NCI-H2347 | 0.345
230 | SK-LU-1 | 0.299
231 | 201T | 0.66
232 | NCI-H1915 | 0.116
233 | HCC-827 | 0.328
234 | LXF-289 | 0.0566
235 | NCI-H23 | 0.146
236 | NCI-H647 | 0.113
237 | NCI-H1651 | 0.358
238 | EPLC-272H | 0.0723
239 | NCI-H1792 | 0.417
240 | NCI-H1355 | 0.198

Same assay, conditions: first compound 1 µM

Row | Cell Line | relative viability
241 | NCI-H2405 | 0.312
242 | HOP-62 | 0.12
243 | HCC-44 | 0.0857
244 | LU99A | 0.184
245 | BEN | 0.216
246 | HARA | 0.196
247 | HCC-78 | 0.159
248 | NCI-H322M | 0.308
249 | LCLC-97TM1 | 0.105
250 | NCI-H2009 | 0.16
251 | A-427 | 0.0896
252 | NCI-H441 | 0.133
253 | NCI-H661 | 0.262
254 | NCI-H1734 | 0.158
255 | NCI-H460 | 0.0112
256 | NCI-H2347 | 0.445
257 | SK-LU-1 | 0.279
258 | 201T | 0.358
259 | NCI-H1915 | 0.108
260 | HCC-827 | 0.305
261 | LXF-289 | 0.0678
262 | NCI-H23 | 0.141
263 | NCI-H647 | 0.115
264 | NCI-H1651 | 0.101
265 | EPLC-272H | 0.093
266 | NCI-H1792 | 0.17
